Results as given in US9056110B2, “Substituted pyrimidinone-phenyl-pyrimidinyl compounds” (Confluence Life Sciences, Inc., priority 2011, dated 2015).

Assays:
p38α/PRAK = p38α/PRAK (Homo sapiens, UniProt Q16539); assay: p38α/PRAK cascade assay (IMAP, Hsp27 peptide phosphorylation); assay type: biochemical; settings: Hsp27 peptide 1 μM, MgATP 10 μM, 120 minutes, read-out: p38/PRAK IC50
Description: (§1) P38 inhibitory potency and P38/MK2 substrate selectivity: The novel, MK2 substrate-selective inhibitory mechanism of compounds is evaluated in enzyme assays that compare inhibitor potency in blocking p38/MK2 versus p38/PRAK induced phosphorylation of an HSP-27 derived peptide substrate. The ability of compounds to inhibit activated phospho-p38α is evaluated using a p38α/MK2 and a p38α/PRAK cascade assay format. The kinase activity of p38α is determined by its ability to phosphorylate and activate GST-MK2 or GST-PRAK. The kinase activity of activated MK2 and PRAK is followed by measuring the phosphorylation of a fluorescently-labeled, peptide substrate based on the sequence of Hsp27 (FITC-KKKALSRQLSVAA). The phosphorylation of the Hsp27 peptide is quantified using IMAP assay technology (Molecular Devices) and the Analyst HT plate reader (LJL Biosystems). Kinase reactions are carried out in a 384-well plate (Corning 3575) in 20 mM HEPES pH 7.5, 10 mM MgCl2, 0.0005% Tween-20, 0.01% BSA, 1 mM DTT, and 2% DMSO. The inhibitor concentration varies between 0.5-30,000 nM, while the Hsp27 peptide substrate and MgATP are held constant at 1 μM and 10 μM, respectively. Activated p38α is added to a final concentration of 20 pM for reactions with 1 nM nonphosphorylated 1 nM GST-MK2. For the p38α/PRAK cascade, unactivated GST-PRAK is held constant at 10 nM while p38α is added to a final concentration of […]. Kinase reactions are incubated at room temperature and quenched after 120 minutes by the addition of 1× Progressive Binding Buffer A containing 1×IMAP beads (IMAP FP Progressive Screening Express Kit, Molecular Devices Catalog Number R8127). Inhibitor potency is calculated by fitting dose-response data to the 4-parameter logistical IC50 equation. The substrate selectivity is calculated as a ratio of p38α/PRAK:p38α/MK2 IC50 values. A substrate selective inhibitor will have a p38α/PRAK:p38α/MK2 IC50 ratio of >2 while a classical p38 inhibitor will have a ratio of between 0.5-2. […] By way of example, the enhanced therapeutic benefit could be associated with a reduction in inhibition of p38 mediated anti-inflammatory functions, such as IL-10 production and TAB1 phosphorylation. An increased safety profile is expected based, for example, on a reduced inhibition of p38 substrates, such as PPARg and CDC25 phosphatase and PLA2 involved in gluconeogenesis and cell cycle regulation, respectively.

TNFα = assay: LPS stimulated TNFα production in human PBMCs (ELISA); assay type: cell-based; settings: PBMC, LPS 0.1 μg/ml, 18-24 hours, read-out: PBMC Cell, TNFα IC50
Description: Evaluation of the potency and efficacy of p38 inhibitors to block cytokine production is carried out using the human U937 cell line and purified human PBMCs (peripheral blood mononuclear cells). The U937 human pre-monocytic cell line is obtained from the American Type Culture Collection (Rockville, Md.). These cells are differentiated to a monocytic/macrophage phenotype as described by Burnette (Burnette et al., (2009). SD0006: a potent, selective and orally available inhibitor of p38 kinase, Pharmacology 84(1):42-60). Differentiated U937 cells are seeded into 96-well tissue culture plates (200,000 cells/well) in complete media. After 24 hours, the cells are pretreated for 60 minutes in the presence or absence of compound and then stimulated with LPS (lipopolysaccharide) (0.1 μg/mL) for 4 hours. Culture media are then collected for determination of TNFα or IL-6 levels by ELISA. Human PBMCs are isolated from leukopacks as described by Burnette (Burnette et al., (2009), op. cit.). The cells are seeded into 96-well tissue culture plates (200,000 cells/well) in complete media. After a one hour recovery period at 37° C., 5% CO2, the cells are pretreated for 60 minutes in the presence or absence of compound and then stimulated with LPS (0.1 μg/ml) for 18-24 hours. Culture media are then collected for determination of TNFα and IL1β by ELISA. Cytokine concentrations are extrapolated from recombinant protein standard curves using a four-parameter logistic model and solving for IC50 after iterating to the best least-squares fit. p38 inhibitors will show a dose dependent inhibition of LPS stimulated TNFα, and IL6 in differentiated U937 cells and a dose dependent inhibition of LPS stimulated TNFα, IL6 and IL1b in human PBMCs. As drugs that down-regulate TNFα, IL6 and IL1b are efficacious in a number of autoimmune, autoinflammatory inflammatory, cardiovascular and oncological diseases, it would be expected that p38 drugs that inhibit these cytokines and other enzymes and mediators of disease will be effective drugs. Species compounds of Formula (I), described hereinabove, evaluated in this assay, are expected to provide a therapeutic benefit in the treatment of p38 kinase mediated diseases, including lymphoma and inflammation.

p38α/MK2 = p38α/MK2 (Homo sapiens, UniProt Q16539); assay: p38α/MK2 cascade assay (IMAP, Hsp27 peptide phosphorylation); assay type: biochemical; settings: for IC50: p38α/MK2 cascade, Hsp27 peptide 1 μM, MgATP 10 μM, 120 minutes, read-out: p38/MK2 IC50; for Selectivity Ratio: ratio of p38α/PRAK:p38α/MK2 IC50 values
Description: as §1

p38α/PRAK, sequence (Q16539 whole entry): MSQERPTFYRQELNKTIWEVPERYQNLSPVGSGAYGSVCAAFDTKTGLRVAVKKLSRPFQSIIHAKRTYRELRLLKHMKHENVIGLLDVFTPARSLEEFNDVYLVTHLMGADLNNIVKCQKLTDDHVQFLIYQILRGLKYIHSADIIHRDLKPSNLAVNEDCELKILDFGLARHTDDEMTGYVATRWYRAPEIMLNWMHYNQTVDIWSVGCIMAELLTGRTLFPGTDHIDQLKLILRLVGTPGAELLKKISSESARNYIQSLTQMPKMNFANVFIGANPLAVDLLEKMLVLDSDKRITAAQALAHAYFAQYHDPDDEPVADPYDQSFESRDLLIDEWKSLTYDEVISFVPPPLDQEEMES
p38α/MK2, sequence (Q16539 whole entry): as above
p38α/MK2, sequence (P49137 whole entry partner): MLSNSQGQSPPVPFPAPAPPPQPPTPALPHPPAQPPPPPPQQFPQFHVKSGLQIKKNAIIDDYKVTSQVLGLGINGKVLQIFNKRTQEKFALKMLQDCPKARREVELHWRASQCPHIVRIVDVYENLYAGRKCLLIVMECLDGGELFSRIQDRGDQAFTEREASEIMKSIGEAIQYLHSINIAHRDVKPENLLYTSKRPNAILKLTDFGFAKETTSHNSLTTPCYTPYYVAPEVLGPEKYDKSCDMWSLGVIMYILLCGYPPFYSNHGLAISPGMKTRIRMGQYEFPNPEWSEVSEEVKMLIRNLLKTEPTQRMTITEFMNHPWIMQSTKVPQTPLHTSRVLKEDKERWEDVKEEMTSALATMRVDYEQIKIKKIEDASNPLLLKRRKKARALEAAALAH

IC50 (p38α/PRAK) [nM] | IC50 (TNFα) [nM] | IC50 (p38α/MK2) [nM] | Selectivity Ratio (p38α/MK2) | Structure (SMILES)
2190 | 158 | 121 | 18.1 | Cc1nc(COc2nc(C)n(-c3cc(-c4ccnc(C(C)(C)O)n4)ccc3C)c(=O)c2Cl)co1 (racemic) [Example 8, 5-chloro-3-(5-(2-(2-hydroxypropan-2-yl)pyrimidin-4-yl)-2-methylphenyl)-2-methyl-6-((2-methyloxazol-4-yl)methoxy)pyrimidin-4(3H)-one]
3300 | 250 | 184 | 17.9 | Cc1cccc(COc2nc(C)n(-c3cc(-c4ccnc(C(C)(C)O)n4)ccc3C)c(=O)c2Cl)n1 (racemic) [Example 14, 5-chloro-3-(5-(2-(2-hydroxypropan-2-yl)pyrimidin-4-yl)-2-methylphenyl)-2-methyl-6-((6-methylpyridin-2-yl)methoxy)pyrimidin-4(3H)-one]
566 | 104 | 40 | 14.1 | Cc1ccc(-c2ccnc(C(C)(C)O)n2)cc1-n1c(C)nc(OCc2ncc(F)cc2F)c(Cl)c1=O (racemic) [Example 19, 5-chloro-6-((3,5-difluoropyridin-2-yl)methoxy)-3-(5-(2-(2-hydroxypropan-2-yl)pyrimidin-4-yl)-2-methylphenyl)-2-methylpyrimidin-4(3H)-one]
– | – | 19200 | >1.56 | Cc1nc(COc2nc(C)n(-c3cc(-c4ccnc(C(C)(C)O)n4)ccc3C)c(=O)c2Cl)co1 (single isomer, unassigned) [Example 10, (+)-5-chloro-3-(5-(2-(2-hydroxypropan-2-yl)pyrimidin-4-yl)-2-methylphenyl)-2-methyl-6-((2-methyloxazol-4-yl)methoxy)pyrimidin-4(3H)-one]
– | 3560 | 5030 | >6.0 | Cc1cccc(COc2nc(C)n(-c3cc(-c4ccnc(C(C)(C)O)n4)ccc3C)c(=O)c2Cl)n1 (single isomer, unassigned) [Example 16, (+)-5-chloro-3-(5-(2-(2-hydroxypropan-2-yl)pyrimidin-4-yl)-2-methylphenyl)-2-methyl-6-((6-methylpyridin-2-yl)methoxy)pyrimidin-4(3H)-one]
76 | 12 | 15 | 5.1 | Cc1ccc(-c2ccnc(C(C)(C)O)n2)cc1-n1c(C)nc(OCc2ccc(F)cc2F)c(Br)c1=O [Example 1, 5-bromo-6-((2,4-difluorobenzyl)oxy)-3-(5-(2-(2-hydroxypropan-2-yl)pyrimidin-4-yl)-2-methylphenyl)-2-methylpyrimidin-4(3H)-one]
83 | 9.8 | 15 | 5.5 | Cc1ccc(-c2ccnc(C(C)(C)O)n2)cc1-n1c(C)nc(OCc2ccc(F)cc2F)c(Cl)c1=O [Example 2, 5-chloro-6-(2,4-difluoro-benzyloxy)-3-{5-[2-(1-hydroxy-1-methyl-ethyl)-pyrimidin-4-yl]-2-methyl-phenyl}-2-methyl-3H-pyrimidin-4-one]
514 | 54 | 51 | 10.1 | Cc1ccc(-c2ccnc(C(C)(C)O)n2)cc1-n1c(C)nc(OCc2ccc(F)cc2)c(Cl)c1=O [Example 3, 5-chloro-6-((4-fluorobenzyl)oxy)-3-(5-(2-(2-hydroxypropan-2-yl)pyrimidin-4-yl)-2-methylphenyl)-2-methylpyrimidin-4(3H)-one]
12900 | 101 | 1020 | 12.6 | Cc1cccc(COc2nc(C)n(-c3cc(-c4ccnc(C(C)(C)C)n4)ccc3C)c(=O)c2Cl)c1 [Example 4, 3-(5-(2-(tert-butyl)pyrimidin-4-yl)-2-methylphenyl)-5-chloro-2-methyl-6-((3-methylbenzyl)oxy)pyrimidin-4(3H)-one]
582 | 40 | 39 | 14.9 | Cc1cccc(COc2nc(C)n(-c3cc(-c4ccnc(C(C)(C)O)n4)ccc3C)c(=O)c2Cl)c1 [Example 5, 5-chloro-3-(5-(2-(2-hydroxypropan-2-yl)pyrimidin-4-yl)-2-methylphenyl)-2-methyl-6-((3-methylbenzyl)oxy)pyrimidin-4(3H)-one]
11600 | 270 | 1900 | 6.1 | COc1cccc(COc2nc(C)n(-c3cc(-c4ccnc(C(C)(C)C)n4)ccc3C)c(=O)c2Cl)c1 [Example 6, 3-[5-(2-tert-butyl-pyrimidin-4-yl)-2-methyl-phenyl]-5-chloro-6-(3-methoxy-benzyloxy) -2-methyl-3H-pyrimidin-4-one]
1490 | 94 | 62 | 24 | COc1cccc(COc2nc(C)n(-c3cc(-c4ccnc(C(C)(C)O)n4)ccc3C)c(=O)c2Cl)c1 [Example 7, 5-chloro-3-(5-(2-(2-hydroxypropan-2-yl)pyrimidin-4-yl)-2-methylphenyl)-6-((3-methoxybenzyl)oxy)-2-methylpyrimidin-4(3H)-one]
1330 | 277 | 126 | 10.6 | Cc1nc(COc2nc(C)n(-c3cc(-c4ccnc(C(C)(C)O)n4)ccc3C)c(=O)c2Cl)co1 [Example 9, (−)-5-chloro-3-(5-(2-(2-hydroxypropan-2-yl)pyrimidin-4-yl)-2-methylphenyl)-2-methyl-6-((2-methyloxazol-4-yl)methoxy)pyrimidin-4(3H)-one]
675 | 126 | 62 | 10.9 | Cc1nc(COc2nc(C)n(-c3cc(-c4ccnc(C(C)(C)O)n4)ccc3C)c(=O)c2Br)cs1 [Example 11, 5-bromo-3-(5-(2-(2-hydroxypropan-2-yl)pyrimidin-4-yl)-2-methylphenyl)-2-methyl-6-((2-methylthiazol-4-yl)methoxy)pyrimidin-4(3H)-one]
15200 | – | 5380 | 2.82 | Cc1ccc(-c2ccnc(C(C)(C)O)n2)cc1-n1c(C)nc(OCc2ncc(F)cc2F)c(Cl)c1=O [Example 20, (+)-5-chloro-6-((3,5-difluoropyridin-2-yl)methoxy)-3-(5-(2-(2-hydroxypropan-2-yl)pyrimidin-4-yl)-2-methylphenyl)-2-methylpyrimidin-4(3H)-one]
